Tests used:
[1] = biological target: Transient receptor potential cation channel subfamily A member 1 (Homo sapiens, UniProt O75762); test: Fluorometric imaging plate reader (FLIPR)-based Ca2+ assay; set-up: compound concentration 0.03-0.3 uM
[2] = test system: Tyrosine-protein kinase ABL1 (Homo sapiens), P00519 [M351T]; conditions: Compound concentration 1000.0 nM
[3] = biological target: Serine/threonine-protein kinase BRSK2 (Homo sapiens) (UniProt Q8IWQ3); conditions: Compound concentration 1000.0 nM
Serine/threonine-protein kinase BRSK2 (Homo sapiens), sequence (Q8IWQ3 whole entry): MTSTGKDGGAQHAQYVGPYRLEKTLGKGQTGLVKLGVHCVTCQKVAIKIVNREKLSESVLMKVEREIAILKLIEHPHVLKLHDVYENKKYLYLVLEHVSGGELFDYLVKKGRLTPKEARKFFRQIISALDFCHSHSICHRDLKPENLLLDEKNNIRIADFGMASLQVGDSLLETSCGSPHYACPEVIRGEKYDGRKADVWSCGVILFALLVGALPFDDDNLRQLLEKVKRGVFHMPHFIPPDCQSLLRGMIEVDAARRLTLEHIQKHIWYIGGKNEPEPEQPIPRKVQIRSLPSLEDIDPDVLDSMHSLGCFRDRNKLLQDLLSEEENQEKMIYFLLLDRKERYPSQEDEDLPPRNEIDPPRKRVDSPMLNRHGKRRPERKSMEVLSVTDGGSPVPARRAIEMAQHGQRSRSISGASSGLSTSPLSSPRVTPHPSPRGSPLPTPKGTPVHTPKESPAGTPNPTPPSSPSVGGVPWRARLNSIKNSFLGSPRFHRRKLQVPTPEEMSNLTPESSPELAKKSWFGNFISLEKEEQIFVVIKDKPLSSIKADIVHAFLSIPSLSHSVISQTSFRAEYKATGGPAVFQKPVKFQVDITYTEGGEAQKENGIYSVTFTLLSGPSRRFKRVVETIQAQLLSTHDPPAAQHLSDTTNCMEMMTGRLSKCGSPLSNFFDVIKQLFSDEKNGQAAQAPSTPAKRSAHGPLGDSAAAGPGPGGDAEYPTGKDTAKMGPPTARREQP

[4] = biological target: Cyclin-dependent kinase-like 3 (Homo sapiens) (UniProt Q8IVW4); conditions: Compound concentration 1000.0 nM
[5] = biological target: Casein kinase I isoform gamma-1 (Homo sapiens) (UniProt Q9HCP0); conditions: Compound concentration 1000.0 nM
Casein kinase I isoform gamma-1 (Homo sapiens), sequence (Q9HCP0 whole entry, looked up, canonical isoform): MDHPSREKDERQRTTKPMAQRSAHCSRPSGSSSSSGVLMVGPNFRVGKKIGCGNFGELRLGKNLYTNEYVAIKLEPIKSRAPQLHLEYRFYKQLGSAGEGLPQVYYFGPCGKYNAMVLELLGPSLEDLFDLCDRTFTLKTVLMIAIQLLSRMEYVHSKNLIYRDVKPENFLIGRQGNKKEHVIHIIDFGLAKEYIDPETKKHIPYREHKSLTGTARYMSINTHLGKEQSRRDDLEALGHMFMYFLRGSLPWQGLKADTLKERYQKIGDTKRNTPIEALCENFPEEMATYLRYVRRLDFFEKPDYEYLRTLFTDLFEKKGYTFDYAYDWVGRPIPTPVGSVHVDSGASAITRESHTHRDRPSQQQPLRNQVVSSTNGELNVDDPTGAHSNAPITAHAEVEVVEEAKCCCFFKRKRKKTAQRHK

[6] = biological target: Casein kinase II subunit alpha (Homo sapiens) (UniProt P68400); conditions: Compound concentration 1000.0 nM
[7] = biological target: Megakaryocyte-associated tyrosine-protein kinase (Homo sapiens) (UniProt P42679); conditions: Compound concentration 1000.0 nM
[8] = biological target: Serine/threonine-protein kinase 17A (Homo sapiens) (UniProt Q9UEE5); conditions: Compound concentration 1000.0 nM
[9] = test system: Epidermal growth factor receptor (Homo sapiens), P00533 [G719C]; conditions: Compound concentration 1000.0 nM
[10] = biological target: Beta-adrenergic receptor kinase 1 (Homo sapiens) (UniProt P25098); conditions: Compound concentration 1000.0 nM
[11] = test system: Mast/stem cell growth factor receptor Kit (Homo sapiens), P10721 [V559D]; conditions: Compound concentration 1000.0 nM
[12] = test system: Leucine-rich repeat serine/threonine-protein kinase 2 (Homo sapiens), Q5S007 [G2019S]; conditions: Compound concentration 1000.0 nM
[13] = biological target: Mitogen-activated protein kinase kinase kinase 1 (Homo sapiens) (UniProt Q13233); conditions: Compound concentration 1000.0 nM
[14] = biological target: Dual specificity mitogen-activated protein kinase kinase 5 (Homo sapiens) (UniProt Q13163); conditions: Compound concentration 1000.0 nM
[15] = biological target: Myosin-IIIb (Homo sapiens) (UniProt Q8WXR4); conditions: Compound concentration 1000.0 nM
[16] = biological target: Phosphorylase b kinase gamma catalytic chain, skeletal muscle/heart isoform (Homo sapiens) (UniProt Q16816); conditions: Compound concentration 1000.0 nM
[17] = biological target: Non-receptor tyrosine-protein kinase TYK2 (Homo sapiens) (UniProt P29597); conditions: Compound concentration 1000.0 nM
Non-receptor tyrosine-protein kinase TYK2 (Homo sapiens), sequence (P29597 whole entry): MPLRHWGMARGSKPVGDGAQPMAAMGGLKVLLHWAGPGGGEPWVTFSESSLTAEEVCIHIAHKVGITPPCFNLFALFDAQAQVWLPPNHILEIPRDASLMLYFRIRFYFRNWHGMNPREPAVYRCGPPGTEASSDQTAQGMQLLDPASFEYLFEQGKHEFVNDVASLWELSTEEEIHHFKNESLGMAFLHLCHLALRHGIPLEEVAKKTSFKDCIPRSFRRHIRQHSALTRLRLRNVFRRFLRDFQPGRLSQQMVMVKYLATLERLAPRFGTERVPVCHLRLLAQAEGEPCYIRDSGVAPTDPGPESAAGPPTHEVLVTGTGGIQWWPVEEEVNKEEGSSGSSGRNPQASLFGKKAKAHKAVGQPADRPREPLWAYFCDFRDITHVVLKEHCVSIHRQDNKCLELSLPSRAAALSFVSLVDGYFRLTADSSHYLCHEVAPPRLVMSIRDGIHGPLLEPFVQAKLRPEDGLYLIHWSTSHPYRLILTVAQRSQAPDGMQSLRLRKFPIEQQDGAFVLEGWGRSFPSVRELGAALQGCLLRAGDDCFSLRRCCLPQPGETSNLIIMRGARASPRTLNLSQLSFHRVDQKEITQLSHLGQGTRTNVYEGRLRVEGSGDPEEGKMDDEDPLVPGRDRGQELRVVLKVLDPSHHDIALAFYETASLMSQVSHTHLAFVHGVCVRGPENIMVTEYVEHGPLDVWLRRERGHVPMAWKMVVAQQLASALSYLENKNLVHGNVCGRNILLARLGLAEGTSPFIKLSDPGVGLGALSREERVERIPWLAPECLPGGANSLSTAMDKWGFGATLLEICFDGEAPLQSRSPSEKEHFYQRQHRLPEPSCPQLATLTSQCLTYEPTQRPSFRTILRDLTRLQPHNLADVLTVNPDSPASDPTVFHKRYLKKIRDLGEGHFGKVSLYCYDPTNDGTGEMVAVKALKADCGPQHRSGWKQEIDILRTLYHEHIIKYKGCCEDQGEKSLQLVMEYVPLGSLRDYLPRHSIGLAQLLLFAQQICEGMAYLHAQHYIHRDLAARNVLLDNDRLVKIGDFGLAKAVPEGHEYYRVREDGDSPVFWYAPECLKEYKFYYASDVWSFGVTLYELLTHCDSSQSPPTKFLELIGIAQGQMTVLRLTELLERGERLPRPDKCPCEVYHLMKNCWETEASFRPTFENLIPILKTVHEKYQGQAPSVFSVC

[18] = biological target: Serine/threonine-protein kinase WNK2 (Homo sapiens) (UniProt Q9Y3S1); conditions: Compound concentration 1000.0 nM
Serine/threonine-protein kinase WNK2 (Homo sapiens), sequence (Q9Y3S1 whole entry): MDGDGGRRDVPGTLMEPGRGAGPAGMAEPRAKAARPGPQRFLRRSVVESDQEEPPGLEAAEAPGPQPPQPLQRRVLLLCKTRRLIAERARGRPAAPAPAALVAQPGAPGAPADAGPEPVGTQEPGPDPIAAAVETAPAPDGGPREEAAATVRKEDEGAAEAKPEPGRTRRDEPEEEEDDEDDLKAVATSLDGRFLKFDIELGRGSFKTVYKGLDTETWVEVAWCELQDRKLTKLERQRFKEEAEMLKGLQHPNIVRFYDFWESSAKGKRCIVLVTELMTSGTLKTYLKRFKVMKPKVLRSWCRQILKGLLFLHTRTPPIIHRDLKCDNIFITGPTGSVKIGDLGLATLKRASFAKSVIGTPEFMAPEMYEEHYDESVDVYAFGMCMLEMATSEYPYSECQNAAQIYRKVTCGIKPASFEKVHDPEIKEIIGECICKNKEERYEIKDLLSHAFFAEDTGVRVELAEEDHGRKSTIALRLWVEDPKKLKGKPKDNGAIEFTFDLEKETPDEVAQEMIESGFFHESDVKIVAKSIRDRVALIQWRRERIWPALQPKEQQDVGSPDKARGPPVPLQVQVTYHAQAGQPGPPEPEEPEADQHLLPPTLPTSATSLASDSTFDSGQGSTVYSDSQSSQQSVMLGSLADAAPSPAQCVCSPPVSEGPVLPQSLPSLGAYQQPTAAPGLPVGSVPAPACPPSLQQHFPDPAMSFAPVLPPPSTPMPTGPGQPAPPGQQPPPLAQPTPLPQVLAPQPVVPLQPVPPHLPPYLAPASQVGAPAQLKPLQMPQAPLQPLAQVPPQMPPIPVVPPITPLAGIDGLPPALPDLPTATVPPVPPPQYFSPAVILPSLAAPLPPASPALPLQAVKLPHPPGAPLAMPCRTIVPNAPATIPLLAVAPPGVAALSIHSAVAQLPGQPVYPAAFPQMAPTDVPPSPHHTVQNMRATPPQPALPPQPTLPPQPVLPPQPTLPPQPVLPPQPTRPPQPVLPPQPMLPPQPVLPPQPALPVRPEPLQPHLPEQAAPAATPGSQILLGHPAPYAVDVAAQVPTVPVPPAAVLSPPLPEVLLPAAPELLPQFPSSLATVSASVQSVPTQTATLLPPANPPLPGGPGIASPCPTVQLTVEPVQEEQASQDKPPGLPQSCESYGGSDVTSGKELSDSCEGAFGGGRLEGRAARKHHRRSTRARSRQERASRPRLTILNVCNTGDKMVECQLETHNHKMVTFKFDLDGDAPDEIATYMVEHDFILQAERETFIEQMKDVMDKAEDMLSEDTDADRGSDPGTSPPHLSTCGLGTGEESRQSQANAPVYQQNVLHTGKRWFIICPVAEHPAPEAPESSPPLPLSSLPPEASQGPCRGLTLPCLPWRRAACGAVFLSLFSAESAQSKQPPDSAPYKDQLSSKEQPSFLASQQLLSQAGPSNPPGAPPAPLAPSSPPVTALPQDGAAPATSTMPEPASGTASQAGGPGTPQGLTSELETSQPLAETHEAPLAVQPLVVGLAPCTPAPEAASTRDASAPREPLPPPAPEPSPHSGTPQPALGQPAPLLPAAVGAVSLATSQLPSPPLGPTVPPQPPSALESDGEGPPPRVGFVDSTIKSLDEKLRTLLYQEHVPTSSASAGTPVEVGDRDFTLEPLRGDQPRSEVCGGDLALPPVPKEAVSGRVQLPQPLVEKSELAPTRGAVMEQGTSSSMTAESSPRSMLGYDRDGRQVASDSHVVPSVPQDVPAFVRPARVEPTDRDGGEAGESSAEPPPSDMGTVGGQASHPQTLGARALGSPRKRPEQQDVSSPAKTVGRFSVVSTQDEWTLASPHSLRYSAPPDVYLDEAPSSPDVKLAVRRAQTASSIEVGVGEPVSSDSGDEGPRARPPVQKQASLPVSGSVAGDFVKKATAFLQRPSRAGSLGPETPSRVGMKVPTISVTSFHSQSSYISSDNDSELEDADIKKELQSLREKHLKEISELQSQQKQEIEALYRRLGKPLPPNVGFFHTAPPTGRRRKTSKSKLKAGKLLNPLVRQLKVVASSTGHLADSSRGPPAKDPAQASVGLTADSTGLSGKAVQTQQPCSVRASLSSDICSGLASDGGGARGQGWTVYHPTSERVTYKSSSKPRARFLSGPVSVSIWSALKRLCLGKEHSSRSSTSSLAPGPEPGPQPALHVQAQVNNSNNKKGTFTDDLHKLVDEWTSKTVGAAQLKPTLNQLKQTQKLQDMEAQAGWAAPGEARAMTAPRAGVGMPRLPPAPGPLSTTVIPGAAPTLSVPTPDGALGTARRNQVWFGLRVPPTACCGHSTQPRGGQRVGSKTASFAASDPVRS

[19] = biological target: Serine/threonine-protein kinase 32A (Homo sapiens) (UniProt Q8WU08); conditions: Compound concentration 1000.0 nM
[20] = biological target: 5-hydroxytryptamine receptor 5A (Homo sapiens) (UniProt P47898); conditions: Compound concentration 10.0 uM
5-hydroxytryptamine receptor 5A (Homo sapiens), sequence (P47898 whole entry): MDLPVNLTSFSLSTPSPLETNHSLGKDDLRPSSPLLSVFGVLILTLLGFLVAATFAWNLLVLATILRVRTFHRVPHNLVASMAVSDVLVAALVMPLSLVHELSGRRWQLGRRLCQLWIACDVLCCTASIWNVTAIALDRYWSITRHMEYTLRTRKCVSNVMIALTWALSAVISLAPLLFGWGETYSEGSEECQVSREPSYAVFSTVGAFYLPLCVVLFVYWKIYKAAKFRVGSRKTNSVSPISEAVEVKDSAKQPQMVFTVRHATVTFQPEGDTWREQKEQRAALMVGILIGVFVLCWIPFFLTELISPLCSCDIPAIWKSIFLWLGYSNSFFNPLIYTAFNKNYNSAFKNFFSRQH

[21] = biological target: GABA-A receptor; anion channel (Rattus norvegicus) (UniProt O09028+P15431+P18506+P18508+P19969+P20236+P23574+P23576+P28471+P28473+P30191+P62813+P63079+P63138+Q91ZM7+Q9ES14); conditions: Compound concentration 10.0 uM
[22] = biological target: Adrenergic receptor alpha-2 (Homo sapiens) (UniProt P08913+P18825+P18089); test: alpha 2 CEREP ligand profiling; assay type: protein assay; conditions: Compound concentration 10.0 uM
[23] = biological target: Cannabinoid receptor 1 (Homo sapiens) (UniProt P21554); test: CB1 (h) CEREP ligand profiling; conditions: Compound concentration 10.0 uM
[24] = biological target: Neuropeptide Y receptor type 2 (Homo sapiens) (UniProt P49146); test: Y2 (h) CEREP ligand profiling; conditions: Compound concentration 10.0 uM
[25] = biological target: Delta-type opioid receptor (Homo sapiens) (UniProt P41143); test: delta 2 (h) CEREP ligand profiling; conditions: Compound concentration 10.0 uM
[26] = biological target: 5-hydroxytryptamine receptor 5A (Homo sapiens) (UniProt P47898); test: 5-HT5A (h) CEREP ligand profiling; conditions: Compound concentration 10.0 uM
[27] = biological target: 5-hydroxytryptamine receptor 7 (Homo sapiens) (UniProt P34969); test: 5-HT7 (h) CEREP ligand profiling; conditions: Compound concentration 10.0 uM
[28] = biological target: Somatostatin receptor (Homo sapiens) (UniProt P35346+P30874+P31391+P30872+P32745); test: sst CEREP ligand profiling; assay type: protein assay; conditions: Compound concentration 10.0 uM
[29] = K+ channel CEREP ligand profiling; conditions: Compound concentration 10.0 uM
[30] = biological target: Adenosine receptor A2a (Homo sapiens) (UniProt P29274); test: A2A (h) CEREP ligand profiling; conditions: Compound concentration 10.0 uM
[31] = biological target: D(1A) dopamine receptor (Homo sapiens) (UniProt P21728); test: D1 (h) CEREP ligand profiling; conditions: Compound concentration 10.0 uM
[32] = biological target: Galanin receptor type 1 (Homo sapiens) (UniProt P47211); test: GAL1 (h) CEREP ligand profiling; conditions: Compound concentration 10.0 uM
[33] = biological target: Melanocortin receptor 4 (Homo sapiens) (UniProt P32245); test: MC4 (h) CEREP ligand profiling; conditions: Compound concentration 10.0 uM
[34] = biological target: T1, Muscarinic acetylcholine receptor M1 (Homo sapiens) (UniProt P11229); test: M1 (h) CEREP ligand profiling; conditions: Compound concentration 10.0 uM
T1 sequence (whole entry): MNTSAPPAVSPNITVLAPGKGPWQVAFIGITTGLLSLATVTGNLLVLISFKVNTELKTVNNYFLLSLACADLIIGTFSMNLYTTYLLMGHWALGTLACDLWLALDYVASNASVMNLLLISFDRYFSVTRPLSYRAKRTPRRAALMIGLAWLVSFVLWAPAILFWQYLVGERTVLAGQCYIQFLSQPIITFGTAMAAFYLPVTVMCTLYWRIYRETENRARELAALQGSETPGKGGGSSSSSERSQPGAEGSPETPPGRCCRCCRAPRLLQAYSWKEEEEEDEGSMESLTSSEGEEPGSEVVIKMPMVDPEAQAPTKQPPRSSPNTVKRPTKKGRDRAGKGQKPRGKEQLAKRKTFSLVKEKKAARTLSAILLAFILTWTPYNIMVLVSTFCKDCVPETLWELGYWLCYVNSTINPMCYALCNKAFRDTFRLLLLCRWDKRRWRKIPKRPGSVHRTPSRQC

[35] = biological target: Substance-K receptor (Homo sapiens) (UniProt P21452); test: NK2 (h) CEREP ligand profiling; conditions: Compound concentration 10.0 uM
[36] = biological target: 5-hydroxytryptamine receptor 2A (Homo sapiens) (UniProt P28223); test: 5-HT2A (h) CEREP ligand profiling; conditions: Compound concentration 10.0 uM
[37] = biological target: Ca2+ channel (voltage-gated L-type calcium channel family) (Homo sapiens, UniProt O60840+Q01668+Q13698+Q13936); test: Ca2+ channel CEREP ligand profiling; assay type: protein assay; conditions: probe penylalkylamine (ligand); compound concentration 10 uM
[38] = biological target: Calcium-activated potassium channel (Homo sapiens) (UniProt Q92952+Q9UGI6+Q12791+O15554+Q9H2S1+A8MYU2); test: SK+ channel CEREP ligand profiling; assay type: protein assay; conditions: Compound concentration 10.0 uM

Row | SMILES | residual activity [3] | residual activity [4] | residual activity [5] | residual activity [6] | residual activity [7] | residual activity [9] | residual activity [11] | residual activity [12] | residual activity [13] | residual activity [15] | residual activity [16] | residual activity [17] | residual activity [18] | residual activity [19] | inhibition [20] | inhibition [21] | other results
1 | CCC(=N\O)/C(C)=C/c1ccc(F)c(C)c1 [A-226] | 100% | 86% | 100% | 100% | 100% | 83% | 100% | 100% | 100% | 67% | 100% | 100% | 100% | 100% | -3.24% | 16.7% | IC50 [1]: > 100 µM (not active); residual activity [2]: 100%; residual activity [8]: 73%; residual activity [10]: 100%; residual activity [14]: 86%
2 | CCC(=N\O)/C(C)=C/c1ccc(F)cc1 [A-079] | 100% | 80% | 99% | 74% | 72% | 64% | 100% | 100% | 63% | 100% | 100% | 72% | 80% | 100% | 3.01% | 14.7% | inhibition [22]: -1%; inhibition [23]: 3%; inhibition [24]: 13%; inhibition [25]: 11%; inhibition [26]: 4%; inhibition [27]: 17%; inhibition [28]: -4%; inhibition [29]: -8%; inhibition [30]: 8%; inhibition [31]: 6%; inhibition [32]: 5%; inhibition [33]: 2%; inhibition [34]: 8%; inhibition [35]: 2%; inhibition [36]: -1%; inhibition at 10 µM [37]: 3% (not active); inhibition [38]: -5%

Source: ChEMBL document CHEMBL4507256 (2021)
